According to US9273058B2 (BRISTOL-MYERS SQUIBB COMPANY, priority 2013, dated 2016):
pIC50: −log10 of the molar value. Like-named read-outs stand apart in the source and are kept apart here.

How the values were obtained:
CK1ε = CK1ε (Homo sapiens, UniProt P49674); assay: CK1ε kinase assay (Caliper LabChip electrophoretic separation of fluoresceinated peptide substrate and product); assay type: biochemical; details: 200 pM CK1ε, 50 μM ATP, 1.5 μM peptide, 22 hours at room temperature
How it was run: (§1)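 Each reaction was incubated 22 hours at room temperature and terminated with EDTA. Read-out was microfluidic electrophoretic separation of fluoresceinated substrate and phospho-product.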

CK1δ = CK1δ (Homo sapiens, UniProt P48730); assay: CK1δ kinase assay (Caliper LabChip electrophoretic separation of fluoresceinated peptide substrate and product); assay type: biochemical; details: 200 pM CK1δ, 50 μM ATP, 1.5 μM peptide, 22 hours at room temperature
Chain of CK1δ (P48730 whole entry): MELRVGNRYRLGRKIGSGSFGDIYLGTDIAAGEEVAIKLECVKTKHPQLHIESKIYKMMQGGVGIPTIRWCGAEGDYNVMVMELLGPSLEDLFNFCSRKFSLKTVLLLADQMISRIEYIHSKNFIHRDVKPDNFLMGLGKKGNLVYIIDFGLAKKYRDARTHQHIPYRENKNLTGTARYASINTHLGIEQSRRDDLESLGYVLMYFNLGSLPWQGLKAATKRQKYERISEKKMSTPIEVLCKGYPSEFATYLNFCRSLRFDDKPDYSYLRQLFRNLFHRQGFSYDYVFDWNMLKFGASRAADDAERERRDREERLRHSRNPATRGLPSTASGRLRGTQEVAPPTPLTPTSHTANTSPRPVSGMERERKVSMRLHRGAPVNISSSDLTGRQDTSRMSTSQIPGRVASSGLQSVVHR
How it was run: as §1

Chain of CK1ε (P49674 whole entry): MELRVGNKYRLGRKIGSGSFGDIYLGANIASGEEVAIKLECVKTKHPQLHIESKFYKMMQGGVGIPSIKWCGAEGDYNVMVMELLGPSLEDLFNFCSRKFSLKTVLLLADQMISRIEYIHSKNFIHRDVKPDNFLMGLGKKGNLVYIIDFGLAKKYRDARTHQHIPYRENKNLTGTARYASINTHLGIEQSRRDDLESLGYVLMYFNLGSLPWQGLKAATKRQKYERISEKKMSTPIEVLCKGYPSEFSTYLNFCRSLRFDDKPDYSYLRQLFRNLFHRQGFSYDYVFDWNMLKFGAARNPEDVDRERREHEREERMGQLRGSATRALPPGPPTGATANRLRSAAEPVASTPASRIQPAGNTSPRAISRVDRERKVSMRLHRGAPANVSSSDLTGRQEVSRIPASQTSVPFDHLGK

pIC50 (CK1ε; read-out: CK1ε)	pIC50 (CK1ε; read-out: CK1ε IC50 range)	pIC50 (CK1δ; read-out: CK1δ)	pIC50 (CK1δ; read-out: CK1δ IC50 range)	Compound
6.27	5.70 to 7.00	7.15	–	NC(=O)c1c(-c2cccc(F)c2)nn2c1CN(C(=O)NC1CCN(CCC(F)(F)F)CC1)CC2 [Compound 103, 2-(3-Fluorophenyl)-N^5-(1-(3,3,3-trifluoropropyl)piperidin-4-yl)-6,7-dihydropyrazolo[1,5-a]pyrazine-3,5(4H)-dicarboxamide]
8.89	8.00 to 11.00	9.15	8.00 to 11.00	CC(C)(C)NC(=O)N1CCn2nc(-c3ccc(F)c(Cl)c3)c(C(N)=O)c2C1 [Compound 104]
7.53	7.00 to 8.00	8.06	8.00 to 11.00	CC(C)(C)NC(=O)N1CCn2nc(-c3ccc(F)c(F)c3)c(C(N)=O)c2C1 [Compound 106, N^5-(tert-Butyl)-2-(3,4-difluorophenyl)-6,7-dihydropyrazolo[1,5-a] pyrazine-3,5(4H)-dicarboxamide]
6.40	5.70 to 7.00	6.98	7.00 to 8.00	CC(C)(C)NC(=O)N1CCn2nc(-c3ccccc3F)c(C(N)=O)c2C1 [Compound 107, N^5-(tert-Butyl)-2-(2-fluorophenyl)-6,7-dihydropyrazolo[1,5-a] pyrazine-3,5(4H)-dicarboxamide]
8.62	8.00 to 11.00	9.05	8.00 to 11.00	CC(C)(C)NC(=O)N1CCn2nc(-c3cccc(Cl)c3)c(C(N)=O)c2C1 [Compound 108, N^5-(tert-Butyl)-2-(3-chlorophenyl)-6,7-dihydropyrazolo[1,5-a] pyrazine-3,5(4H)-dicarboxamide]
6.81	5.70 to 7.00	7.08	7.00 to 8.00	CC(C)(C)NC(=O)N1CCn2nc(-c3cccc(C(F)(F)F)c3)c(C(N)=O)c2C1 [Compound 110, N^5-(tert-Butyl)-2-(3-(trifluoromethyl)phenyl)-6,7-dihydropyrazolo[1,5-a] pyrazine-3,5(4H)-dicarboxamide]
–	5.70 to 7.00	–	5.70 to 7.00	CC(C)(C)NC(=O)N1CCn2nc(-c3cccnc3)c(C(N)=O)c2C1 [Compound 111, N^5-(tert-Butyl)-2-(pyridin-3-yl)-6,7-dihydropyrazolo[1,5-a]pyrazine-3,5(4H)-dicarboxamide]
–	5.70 to 7.00	–	7.00 to 8.00	CC(C)(C)NC(=O)N1CCn2nc(-c3ccnc(F)c3)c(C(N)=O)c2C1 [Compound 112, N^5-(tert-Butyl)-2-(2-fluoropyridin-4-yl)-6,7-dihydropyrazolo[1,5-a] pyrazine-3,5(4H)-dicarboxamide]
7.37	7.00 to 8.00	7.90	7.00 to 8.00	CC(C)(C)NC(=O)N1CCn2nc(-c3cccc(C#N)c3)c(C(N)=O)c2C1 [Compound 114, N^5-(tert-Butyl)-2-(3-cyanophenyl)-6,7-dihydropyrazolo[1,5-a] pyrazine-3,5(4H)-dicarboxamide]
–	5.70 to 7.00	–	7.00 to 8.00	CC(C)(C)NC(=O)N1CCn2nc(-c3cc(F)cc(C#N)c3)c(C(N)=O)c2C1 [Compound 115, N^5-(tert-Butyl)-2-(3-cyano-5-fluorophenyl)-6,7-dihydropyrazolo[1,5-a] pyrazine-3,5(4H)-dicarboxamide]
7.10	7.00 to 8.00	7.74	7.00 to 8.00	CC(C)(C)NC(=O)N1CCn2nc(-c3ccccc3)c(C(N)=O)c2C1 [Compound 116, N^5-(tert-Butyl)-2-phenyl-6,7-dihydropyrazolo[1,5-a] pyrazine-3,5(4H)-dicarboxamide]
–	5.70 to 7.00	–	5.70 to 7.00	CC(C)(C)NC(=O)N1CCn2nc(-c3cccc(NS(C)(=O)=O)c3)c(C(N)=O)c2C1 [Compound 118, N^5-(tert-Butyl)-2-(3-(methylsulfonamido)phenyl)-6,7-dihydropyrazolol[1,5-a] pyrazine-3,5(4H)-dicarboxamide]
–	5.70 to 7.00	–	7.00 to 8.00	CC(C)(C)NC(=O)N1CCn2nc(-c3cccc(N)c3)c(C(N)=O)c2C1 [Compound 120, 2-(3-Aminophenyl)-N^5-(tert-butyl)-6,7-dihydropyrazolo [1,5-a]pyrazine-3,5(4H)-dicarboxamide]
–	5.70 to 7.00	–	7.00 to 8.00	CC(C)(C)NC(=O)N1CCn2nc(-c3ccsc3)c(C(N)=O)c2C1 [Compound 121, N^5-(tert-Butyl)-2-(thiophen-3-yl)-6,7-dihydropyrazolo[1,5-a]pyrazine-3,5(4H)-dicarboxamide]
–	5.70 to 7.00	–	5.70 to 7.00	CC(C)(C)NC(=O)N1CCn2nc(-c3cccc(C(=O)O)c3)c(C(N)=O)c2C1 [Compound 122, 3-(5-(tert-Butylcarbamoyl)-3-carbamoyl-4,5,6,7-tetrahydropyrazolo[1,5-a]pyrazin-2-yl)benzoic acid]
–	5.70 to 7.00	–	7.00 to 8.00	CC(C)(C)NC(=O)N1CCn2nc(-c3cccc(C(N)=O)c3)c(C(N)=O)c2C1 [Compound 123, N^5-(tert-Butyl)-2-(3-carbamoylphenyl)-6,7-dihydropyrazolo[1,5-a] pyrazine-3,5(4H)-dicarboxamide]
6.93	–	6.76	–	CC(C)(C)NC(=O)N1CCn2nc(-c3ccc(F)cc3F)c(C(N)=O)c2C1 [Compound 124, N^5-(tert-Butyl)-2-(2,4-difluorophenyl)-6,7-dihydropyrazolo[1,5-a] pyrazine-3,5(4H)-dicarboxamide]
6.07	5.70 to 7.00	6.35	5.70 to 7.00	CC(C)(C)NC(=O)N1CCn2nc(-c3ccncc3)c(C(N)=O)c2C1 [Compound 126, N^5-(tert-Butyl)-2-(pyridin-4-yl)-6,7-dihydropyrazolo[1,5-a]pyrazine-3,5(4H)-dicarboxamide]
6.35	5.70 to 7.00	6.45	5.70 to 7.00	CC(C)(C)NC(=O)N1CCn2nc(-c3ccc(C#N)cc3)c(C(N)=O)c2C1 [Compound 127, N^5-(tert-Butyl)-2-(4-cyanophenyl)-6,7-dihydropyrazolo[1,5-a] pyrazine-3,5(4H)-dicarboxamide]
7.05	7.00 to 8.00	7.02	7.00 to 8.00	CC(C)(C)NC(=O)N1CCn2nc(-c3cccc(Cl)c3Cl)c(C(N)=O)c2C1 [Compound 130, N^5-(tert-Butyl)-2-(2,3-dichlorophenyl)-6,7-dihydropyrazolo[1,5-a] pyrazine-3,5(4H)-dicarboxamide]
–	5.70 to 7.00	–	5.70 to 7.00	CC(C)(C)NC(=O)N1CCn2nc(-c3ccccc3C(N)=O)c(C(N)=O)c2C1 [Compound 131, N^5-(tert-Butyl)-2-(2-carbamoylphenyl)-6,7-dihydropyrazolo[1,5-a] pyrazine-3,5(4H)-dicarboxamide]
–	5.70 to 7.00	–	5.70 to 7.00	CC(C)(C)NC(=O)N1CCn2nc(-c3cccc4ncccc34)c(C(N)=O)c2C1 [Compound 132, N^5-(tert-Butyl)-2-(quinolin-5-yl)-6,7-dihydropyrazolo[1,5-a]pyrazine-3,5(4H)-dicarboxamide]
–	5.70 to 7.00	–	5.70 to 7.00	CC(C)(C)NC(=O)N1CCn2nc(-c3cncc4ccccc34)c(C(N)=O)c2C1 [Compound 133, N^5-(tert-Butyl)-2-(isoquinolin-4-yl)-6,7-dihydropyrazolo[1,5-a] pyrazine-3,5(4H)-dicarboxamide]
–	5.70 to 7.00	–	5.70 to 7.00	CC(C)(C)NC(=O)N1CCn2nc(-c3cccc4cnccc34)c(C(N)=O)c2C1 [Compound 134, N^5-(tert-Butyl)-2-(isoquinolin-5-yl)-6,7-dihydropyrazolo[1,5-a] pyrazine-3,5(4H)-dicarboxamide]
–	5.70 to 7.00	–	5.70 to 7.00	CC(C)(C)NC(=O)N1CCn2nc(-c3cccc(CNS(C)(=O)=O)c3)c(C(N)=O)c2C1 [Compound 135, N^5-(tert-Butyl)-2-(3-(methylsulfonamidomethyl)phenyl)-6,7-dihydropyrazolo [1,5-a]pyrazine-3,5(4H)-dicarboxamide]
–	5.70 to 7.00	–	5.70 to 7.00	CC(C)(C)NC(=O)N1CCn2nc(-c3cccc(S(N)(=O)=O)c3)c(C(N)=O)c2C1 [Compound 136, N^5-(tert-Butyl)-2-(3-sulfamoylphenyl)-6,7-dihydropyrazolo[1,5-a] pyrazine-3,5(4H)-dicarboxamide]
–	5.70 to 7.00	–	5.70 to 7.00	CC(C)(C)NC(=O)N1CCn2nc(-c3cccc(OC(F)(F)F)c3)c(C(N)=O)c2C1 [Compound 138, N^5-(tert-Butyl)-2-(3-(trifluoromethoxy)phenyl)-6,7-dihydropyrazolo[1,5-a] pyrazine-3,5(4H)-dicarboxamide]
–	5.70 to 7.00	–	7.00 to 8.00	CC(C)(C)NC(=O)N1CCn2nc(-c3ccc(F)c(C(F)(F)F)c3)c(C(N)=O)c2C1 [Compound 139, N^5-(tert-Butyl)-2-(4-fluoro-3-(trifluoromethyl)phenyl)-6,7-dihydropyrazolo[1,5-a] pyrazine-3,5(4H)-dicarboxamide]
–	5.70 to 7.00	–	5.70 to 7.00	CC(C)(C)NC(=O)N1CCn2nc(-c3cc4ccccc4nc3Cl)c(C(N)=O)c2C1 [Compound 140, N^5-(tert-Butyl)-2-(2-chloroquinolin-3-yl)-6,7-dihydropyrazolo[1,5-a] pyrazine-3,5(4H)-dicarboxamide]
–	5.70 to 7.00	–	5.70 to 7.00	CC(C)(C)NC(=O)N1CCn2nc(-c3cccc(-c4ccccc4)c3)c(C(N)=O)c2C1 [Compound 141, 2-([1,1′-Biphenyl]-3-yl)-N^5-(tert-butyl)-6,7-dihydropyrazolo[1,5-a] pyrazine-3,5(4H)-dicarboxamide]

Compound	pIC50 (CK1ε; read-out: CK1ε)	pIC50 (CK1ε; read-out: CK1ε IC50 range)	pIC50 (CK1δ; read-out: CK1δ)	pIC50 (CK1δ; read-out: CK1δ IC50 range)
CC(C)(C)NC(=O)N1CCn2nc(-c3ccc(F)nc3F)c(C(N)=O)c2C1 [Compound 125, N^5-(tert-Butyl)-2-(2,6-difluoropyridin-3-yl)-6,7-dihydropyrazolo[1,5-a] pyrazine-3,5(4H)-dicarboxamide]	–	5.70 to 7.00	–	5.70 to 7.00
